Measurements: US9340590B2 (priority 2011, dated 2016)
Read-outs that look alike come from different tables or passages of the source. Positions of bridges follow the written chain, without caps; N, C: chain ends. Non-standard residues stand in square brackets, D forms with d. Residues, ends and D or L forms follow the SMILES beside them. Nva = CCC[C@H](N)C(=O)O

Key:
Experiment in all cases: cell-based
[1] = target: hNav1.7 (Homo sapiens, UniProt Q15858); format: cell-based
[2] = target: hNav1.5 (Homo sapiens, UniProt Q14524); conditions: IonWorks Quattro, read-out: IWQ Use Nav1.5
[3] = target: hNav1.3 (Homo sapiens, UniProt Q9NY46); conditions: IonWorks Quattro, read-out: IWQ Use Nav1.3
[4] = IonWorks Quattro, clamped to −110 mV, depolarized to −10 mV, 5 min after compound, n=2, read-out: IWQ Use Nav1.7
[5] = clamped to −110 mV, depolarized to −10 mV, 5 min after compound, n=2
[6] = IonWorks Quattro, use-dependent protocol, hNav1.7, read-out: IWQ Use Nav1.7
[7] = use-dependent protocol, hNav1.5
[8] = use-dependent protocol, hNav1.3

Sequence of hNav1.7 (Q15858 whole entry, looked up): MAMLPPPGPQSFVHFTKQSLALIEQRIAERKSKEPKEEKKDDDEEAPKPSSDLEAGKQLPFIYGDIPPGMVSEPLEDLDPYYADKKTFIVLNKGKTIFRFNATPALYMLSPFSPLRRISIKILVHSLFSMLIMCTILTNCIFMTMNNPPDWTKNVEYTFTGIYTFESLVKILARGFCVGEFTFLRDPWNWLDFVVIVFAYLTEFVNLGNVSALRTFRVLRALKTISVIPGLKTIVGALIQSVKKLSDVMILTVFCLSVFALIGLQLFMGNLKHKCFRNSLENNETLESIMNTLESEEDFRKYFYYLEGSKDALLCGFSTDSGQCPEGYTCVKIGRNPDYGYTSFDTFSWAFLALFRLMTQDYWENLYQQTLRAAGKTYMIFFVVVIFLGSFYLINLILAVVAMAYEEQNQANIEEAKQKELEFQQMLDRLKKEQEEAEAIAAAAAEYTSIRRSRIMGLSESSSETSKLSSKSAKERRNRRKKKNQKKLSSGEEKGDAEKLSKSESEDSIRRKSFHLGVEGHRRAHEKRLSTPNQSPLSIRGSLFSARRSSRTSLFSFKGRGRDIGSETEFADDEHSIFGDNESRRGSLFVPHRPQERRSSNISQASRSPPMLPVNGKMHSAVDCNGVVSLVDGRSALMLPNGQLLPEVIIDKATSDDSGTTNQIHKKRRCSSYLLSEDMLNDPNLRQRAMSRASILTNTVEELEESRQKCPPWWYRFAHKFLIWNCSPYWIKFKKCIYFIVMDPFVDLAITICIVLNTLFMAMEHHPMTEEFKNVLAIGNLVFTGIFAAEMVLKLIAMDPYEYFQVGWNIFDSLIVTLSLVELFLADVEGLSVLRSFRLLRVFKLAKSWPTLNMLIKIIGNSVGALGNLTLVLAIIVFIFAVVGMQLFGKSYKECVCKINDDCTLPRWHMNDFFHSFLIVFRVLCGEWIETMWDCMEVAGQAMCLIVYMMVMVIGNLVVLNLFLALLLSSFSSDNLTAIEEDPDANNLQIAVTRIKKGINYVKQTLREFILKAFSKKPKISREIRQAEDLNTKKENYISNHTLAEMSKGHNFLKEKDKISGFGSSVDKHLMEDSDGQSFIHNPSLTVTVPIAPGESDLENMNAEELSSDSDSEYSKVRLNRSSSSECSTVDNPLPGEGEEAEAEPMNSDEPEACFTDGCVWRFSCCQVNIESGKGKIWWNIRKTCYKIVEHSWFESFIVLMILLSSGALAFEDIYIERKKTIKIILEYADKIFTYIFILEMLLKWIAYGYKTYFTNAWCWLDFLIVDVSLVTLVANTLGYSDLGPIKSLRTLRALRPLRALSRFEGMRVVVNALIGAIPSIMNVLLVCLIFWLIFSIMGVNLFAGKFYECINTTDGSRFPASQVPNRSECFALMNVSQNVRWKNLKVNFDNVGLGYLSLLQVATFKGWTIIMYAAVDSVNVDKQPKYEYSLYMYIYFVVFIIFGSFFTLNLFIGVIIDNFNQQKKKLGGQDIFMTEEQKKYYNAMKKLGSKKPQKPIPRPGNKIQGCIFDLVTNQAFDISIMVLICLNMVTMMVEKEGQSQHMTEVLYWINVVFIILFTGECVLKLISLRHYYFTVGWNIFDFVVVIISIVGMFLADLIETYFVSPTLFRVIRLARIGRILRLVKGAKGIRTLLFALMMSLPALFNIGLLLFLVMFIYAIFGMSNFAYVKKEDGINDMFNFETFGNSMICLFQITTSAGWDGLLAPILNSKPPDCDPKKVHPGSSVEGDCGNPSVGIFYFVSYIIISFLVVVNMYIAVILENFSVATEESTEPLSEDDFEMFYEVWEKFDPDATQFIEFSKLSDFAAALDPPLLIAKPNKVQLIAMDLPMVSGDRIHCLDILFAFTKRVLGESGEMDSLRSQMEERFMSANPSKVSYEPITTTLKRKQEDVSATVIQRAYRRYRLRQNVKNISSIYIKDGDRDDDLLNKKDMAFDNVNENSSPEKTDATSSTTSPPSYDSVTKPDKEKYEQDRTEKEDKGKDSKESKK
Sequence of hNav1.3 (Q9NY46 whole entry, looked up): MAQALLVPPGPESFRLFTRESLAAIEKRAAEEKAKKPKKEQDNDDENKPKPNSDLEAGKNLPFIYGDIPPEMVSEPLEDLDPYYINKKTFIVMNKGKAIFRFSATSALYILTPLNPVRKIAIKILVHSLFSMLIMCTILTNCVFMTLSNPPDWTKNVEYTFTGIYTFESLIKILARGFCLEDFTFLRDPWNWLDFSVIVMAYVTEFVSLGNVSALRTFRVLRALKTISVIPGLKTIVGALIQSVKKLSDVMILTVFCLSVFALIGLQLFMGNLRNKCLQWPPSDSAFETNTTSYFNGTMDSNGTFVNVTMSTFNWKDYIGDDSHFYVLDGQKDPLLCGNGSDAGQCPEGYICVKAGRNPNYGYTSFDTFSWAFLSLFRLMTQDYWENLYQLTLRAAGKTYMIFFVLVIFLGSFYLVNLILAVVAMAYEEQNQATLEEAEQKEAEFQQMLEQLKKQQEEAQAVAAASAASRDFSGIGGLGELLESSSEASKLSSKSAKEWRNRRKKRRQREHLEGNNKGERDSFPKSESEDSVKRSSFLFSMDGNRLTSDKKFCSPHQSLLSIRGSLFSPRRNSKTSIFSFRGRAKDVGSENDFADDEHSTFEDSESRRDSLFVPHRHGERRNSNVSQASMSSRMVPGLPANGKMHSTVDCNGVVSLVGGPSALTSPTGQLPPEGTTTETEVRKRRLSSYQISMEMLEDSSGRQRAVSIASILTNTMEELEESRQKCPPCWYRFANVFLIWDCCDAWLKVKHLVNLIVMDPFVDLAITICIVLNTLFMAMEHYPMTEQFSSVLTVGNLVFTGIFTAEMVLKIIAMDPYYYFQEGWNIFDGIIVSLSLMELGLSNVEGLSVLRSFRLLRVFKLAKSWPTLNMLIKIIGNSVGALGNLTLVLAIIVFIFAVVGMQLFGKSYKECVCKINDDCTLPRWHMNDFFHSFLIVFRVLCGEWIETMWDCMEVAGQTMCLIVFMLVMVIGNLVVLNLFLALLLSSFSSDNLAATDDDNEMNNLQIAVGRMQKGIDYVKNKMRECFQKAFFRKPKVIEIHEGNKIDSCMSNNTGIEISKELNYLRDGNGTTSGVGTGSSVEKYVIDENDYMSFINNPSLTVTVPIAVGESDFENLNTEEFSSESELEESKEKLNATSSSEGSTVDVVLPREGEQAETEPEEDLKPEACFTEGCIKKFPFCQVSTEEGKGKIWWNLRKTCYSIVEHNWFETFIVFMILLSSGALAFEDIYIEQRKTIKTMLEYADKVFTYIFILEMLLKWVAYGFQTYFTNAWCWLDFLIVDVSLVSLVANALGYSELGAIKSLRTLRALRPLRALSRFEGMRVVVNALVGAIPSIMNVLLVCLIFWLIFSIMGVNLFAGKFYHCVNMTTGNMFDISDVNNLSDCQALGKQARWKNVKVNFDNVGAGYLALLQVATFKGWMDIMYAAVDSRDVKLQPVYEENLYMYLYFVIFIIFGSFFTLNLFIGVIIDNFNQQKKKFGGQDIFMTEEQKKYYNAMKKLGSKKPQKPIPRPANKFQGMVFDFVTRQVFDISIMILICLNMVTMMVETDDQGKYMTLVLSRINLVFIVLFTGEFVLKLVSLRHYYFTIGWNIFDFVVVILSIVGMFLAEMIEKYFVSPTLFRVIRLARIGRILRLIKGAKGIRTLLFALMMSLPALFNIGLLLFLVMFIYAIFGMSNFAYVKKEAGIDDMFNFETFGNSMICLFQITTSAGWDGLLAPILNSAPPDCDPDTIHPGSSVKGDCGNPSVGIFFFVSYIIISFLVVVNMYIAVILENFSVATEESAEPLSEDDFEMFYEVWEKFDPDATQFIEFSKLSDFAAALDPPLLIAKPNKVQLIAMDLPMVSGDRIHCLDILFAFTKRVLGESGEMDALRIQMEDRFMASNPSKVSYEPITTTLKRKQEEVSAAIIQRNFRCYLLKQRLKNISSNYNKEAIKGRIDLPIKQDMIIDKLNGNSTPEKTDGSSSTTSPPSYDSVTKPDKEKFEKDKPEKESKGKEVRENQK

CC[C@H](C)[C@@H]1NC(=O)[C@@H]2CSSC[C@@H]3NC(=O)[C@H](C(C)C)NC(=O)[C@H](CC(C)C)NC(=O)[C@H](CC(N)=O)NC(=O)[C@@H]4CCCN4C(=O)[C@H](CCCNC(=N)N)NC(=O)[C@H](CSSC[C@H](NC(=O)[C@@H](N)CC(=O)O)C(=O)N[C@@H](CC(C)C)C(=O)NCC(=O)N[C@@H](Cc4ccccc4)C(=O)N[C@@H](Cc4ccc(C(=O)O)cc4)C(=O)N[C@@H](CCCNC(=N)N)C(=O)N[C@@H](CCCCN)C(=O)N2)NC(=O)[C@H](CSSC[C@@H](C(=O)N[C@@H](CCCCN)C(=O)N[C@@H](Cc2ccc(O)cc2)C(=O)N[C@H](C(=O)N[C@@H](Cc2ccccc2)C(N)=O)C(C)C)NC(=O)[C@H](Cc2c[nH]c4ccccc24)NC(=O)[C@H](CCCCN)NC(=O)[C@H](Cc2c[nH]cn2)NC(=O)[C@H]([C@@H](C)O)NC(=O)[C@H](CCCNC(=N)N)NC(=O)[C@H](CO)NC3=O)NC(=O)[C@H](CCCCN)NC(=O)[C@H](CC(=O)O)NC(=O)[C@H](CC(N)=O)NC(=O)[C@H](CC(=O)O)NC(=O)[C@@H]2CCCN2C1=O [SEQ ID NO: 293]
IC50 [1, 4]: 15.8 µM
IC50 [2, 5]: 11.1 µM
IC50 [3, 5]: 13.8 µM

CC[C@H](C)[C@@H]1NC(=O)[C@@H]2CSSC[C@@H]3NC(=O)[C@H](C(C)C)NC(=O)[C@H](CC(C)C)NC(=O)[C@H](CC(N)=O)NC(=O)[C@@H]4CCCN4C(=O)[C@H](CCCNC(=N)N)NC(=O)[C@H](CSSC[C@H](NC(=O)[C@@H](N)CC(=O)O)C(=O)N[C@@H](CC(C)C)C(=O)NCC(=O)N[C@@H](Cc4ccccc4)C(=O)N[C@@H]([C@@H](C)O)C(=O)N[C@@H](CCCNC(=N)N)C(=O)N[C@@H](CCCCN)C(=O)N2)NC(=O)[C@H](CSSC[C@@H](C(=O)N[C@@H](CCCCN)C(=O)N[C@@H](Cc2ccc(O)cc2)C(=O)N[C@H](C(=O)N[C@@H](Cc2ccccc2)C(N)=O)C(C)C)NC(=O)[C@H](Cc2c[nH]c4ccccc24)NC(=O)[C@H](CCCCN)NC(=O)[C@H](Cc2c[nH]cn2)NC(=O)[C@H]([C@@H](C)O)NC(=O)[C@H](CCCNC(=N)N)NC(=O)[C@H](CO)NC3=O)NC(=O)[C@H](CCCCN)NC(=O)[C@H](CC(=O)O)NC(=O)[C@H](CC(N)=O)NC(=O)[C@H](CC(=O)O)NC(=O)[C@@H]2CCCN2C1=O [SEQ ID NO: 285] (H-DCLGFTRKCIPDNDKCCRPNLVCSRTHKWCKYVF-NH2; disulfide 2-17, 9-23, 16-30)
IC50 [1, 4]: 0.59 µM
IC50 [2, 5]: 18.7 µM
IC50 [3, 5]: 0.28 µM

CC[C@H](C)[C@@H]1NC(=O)[C@@H]2CSSC[C@@H]3NC(=O)[C@H](C(C)C)NC(=O)[C@H](CC(C)C)NC(=O)[C@H](CC(N)=O)NC(=O)[C@@H]4CCCN4C(=O)[C@H](CCCNC(=N)N)NC(=O)[C@H](CSSC[C@H](NC(=O)[C@@H](N)CC(=O)O)C(=O)N[C@@H](CC(C)C)C(=O)NCC(=O)N[C@@H](Cc4cccs4)C(=O)N[C@@H](CCSC)C(=O)N[C@@H](CCCNC(=N)N)C(=O)N[C@@H](CCCCN)C(=O)N2)NC(=O)[C@H](CSSC[C@@H](C(=O)N[C@@H](CCCCN)C(=O)N[C@@H](Cc2ccc(O)cc2)C(=O)N[C@H](C(=O)N[C@@H](Cc2ccccc2)C(N)=O)C(C)C)NC(=O)[C@H](Cc2c[nH]c4ccccc24)NC(=O)[C@H](CCCCN)NC(=O)[C@H](Cc2c[nH]cn2)NC(=O)[C@H]([C@@H](C)O)NC(=O)[C@H](CCCNC(=N)N)NC(=O)[C@H](CO)NC3=O)NC(=O)[C@H](CCCCN)NC(=O)[C@H](CC(=O)O)NC(=O)[C@H](CC(N)=O)NC(=O)[C@H](CC(=O)O)NC(=O)[C@@H]2CCCN2C1=O [compound 682]
IC50 [1, 6]: 0.11 µM
IC50 [2, 7]: > 5 µM
IC50 [3, 8]: 0.28 µM

CC[C@H](C)[C@@H]1NC(=O)[C@@H]2CSSC[C@@H]3NC(=O)[C@H](C(C)C)NC(=O)[C@H](CC(C)C)NC(=O)[C@H](CC(N)=O)NC(=O)[C@@H]4CCCN4C(=O)[C@H](CCCNC(=N)N)NC(=O)[C@H](CSSC[C@H](NC(=O)[C@@H](N)CC(=O)O)C(=O)N[C@@H](CC(C)C)C(=O)NCC(=O)N[C@@H](C)C(=O)N[C@@H](Cc4ccccc4)C(=O)N[C@@H](CCCNC(=N)N)C(=O)N[C@@H](CCCCN)C(=O)N2)NC(=O)[C@H](CSSC[C@@H](C(=O)N[C@@H](CCCCN)C(=O)N[C@@H](Cc2ccc(O)cc2)C(=O)N[C@H](C(=O)N[C@@H](Cc2ccccc2)C(=O)O)C(C)C)NC(=O)[C@H](Cc2c[nH]c4ccccc24)NC(=O)[C@H](CC(N)=O)NC(=O)[C@H](Cc2c[nH]cn2)NC(=O)[C@H]([C@@H](C)O)NC(=O)[C@H](CCCNC(=N)N)NC(=O)[C@H](CO)NC3=O)NC(=O)[C@H](CCCCN)NC(=O)[C@H](CC(=O)O)NC(=O)[C@H](CC(N)=O)NC(=O)[C@H](CC(=O)O)NC(=O)[C@@H]2CCCN2C1=O [compound 832] (H-DCLGAFRKCIPDNDKCCRPNLVCSRTHNWCKYVF-OH; disulfide 2-17, 9-23, 16-30)
IC50 ([1]; IonWorks Quattro, use-dependent block, hNav1.7, read-out: IWQ Use Nav1.7): > 5 µM
IC50 ([2]; use-dependent block, hNav1.5): > 5 µM
IC50 ([3]; use-dependent block, hNav1.3): 4.6 µM

CSCC[C@@H]1NC(=O)[C@H](Cc2ccccc2)NC(=O)CNC(=O)[C@H](CC(C)C)NC(=O)[C@@H](NC(=O)[C@@H](N)CC(=O)O)CSSC[C@@H]2NC(=O)[C@@H]3CSSC[C@@H](C(=O)N[C@@H](CCCCN)C(=O)N[C@@H](Cc4ccc(O)cc4)C(=O)N[C@H](C(=O)N[C@@H](Cc4ccccc4)C(N)=O)C(C)C)NC(=O)[C@H](Cc4c[nH]c5ccccc45)NC(=O)[C@H](CCCCN)NC(=O)[C@H](Cc4cnc[nH]4)NC(=O)[C@H]([C@@H](C)O)NC(=O)[C@H](CCCNC(=N)N)NC(=O)[C@H](CO)NC(=O)[C@H](CSSC[C@H](NC(=O)[C@H](CCCCN)NC(=O)[C@H](CCCNC(=N)N)NC1=O)C(=O)N[C@@H](CC(N)=O)C(=O)N1CCC[C@H]1C(=O)N[C@@H](CC(=O)O)C(=O)N[C@@H](CC(N)=O)C(=O)N[C@@H](CC(=O)O)C(=O)N[C@@H](CCCCN)C(=O)N3)NC(=O)[C@H](C(C)C)NC(=O)[C@H](CC(C)C)NC(=O)[C@H](CC(N)=O)NC(=O)[C@@H]1CCCN1C(=O)[C@H](CCCNC(=N)N)NC2=O [compound 90] (H-DCLGFMRKCNPDNDKCCRPNLVCSRTHKWCKYVF-NH2; disulfide 2-17, 9-23, 16-30)
IC50 [1]: 0.49 µM
IC50 ([2]; Use): 14.1 µM
IC50 ([3]; Use): 0.19 µM

CC[C@H](C)[C@@H]1NC(=O)[C@@H]2CSSC[C@@H]3NC(=O)[C@H](C(C)C)NC(=O)[C@H](CC(C)C)NC(=O)[C@H](CC(N)=O)NC(=O)[C@@H]4CCCN4C(=O)[C@H](CCCNC(=N)N)NC(=O)[C@H](CSSC[C@H](NC(=O)[C@@H](N)CC(=O)O)C(=O)N[C@@H](CC(C)C)C(=O)NCC(=O)N[C@@H](Cc4ccccc4)C(=O)N[C@@H](C(C)C)C(=O)N[C@@H](CCCNC(=N)N)C(=O)N[C@@H](CCCCN)C(=O)N2)NC(=O)[C@H](CSSC[C@@H](C(=O)N[C@@H](CCCCN)C(=O)N[C@@H](Cc2ccc(O)cc2)C(=O)N[C@H](C(=O)N[C@@H](Cc2ccccc2)C(N)=O)C(C)C)NC(=O)[C@H](Cc2c[nH]c4ccccc24)NC(=O)[C@H](CCCCN)NC(=O)[C@H](Cc2c[nH]cn2)NC(=O)[C@H]([C@@H](C)O)NC(=O)[C@H](CCCNC(=N)N)NC(=O)[C@H](CO)NC3=O)NC(=O)[C@H](CCCCN)NC(=O)[C@H](CC(=O)O)NC(=O)[C@H](CC(N)=O)NC(=O)[C@H](CC(=O)O)NC(=O)[C@@H]2CCCN2C1=O [SEQ ID NO: 287] (H-DCLGFVRKCIPDNDKCCRPNLVCSRTHKWCKYVF-NH2; disulfide 2-17, 9-23, 16-30)
IC50 [1, 4]: 0.09 µM
IC50 [2, 5]: 9.23 µM
IC50 [3, 5]: 0.08 µM

CCC[C@@H]1NC(=O)CNC(=O)[C@H](CC(C)C)NC(=O)[C@@H](NC(=O)[C@@H](N)CC(=O)O)CSSC[C@@H]2NC(=O)[C@@H]3CSSC[C@@H](C(=O)N[C@@H](CCCCN)C(=O)N[C@@H](Cc4ccc(O)cc4)C(=O)N[C@H](C(=O)N[C@@H](Cc4ccccc4)C(N)=O)C(C)C)NC(=O)[C@H](Cc4c[nH]c5ccccc45)NC(=O)[C@H](CCC(=O)O)NC(=O)[C@H](Cc4c[nH]cn4)NC(=O)[C@H]([C@@H](C)O)NC(=O)[C@H](CCCNC(=N)N)NC(=O)[C@H](CO)NC(=O)[C@H](CSSC[C@H](NC(=O)[C@H](CCCCN)NC(=O)[C@H](CCCNC(=N)N)NC(=O)[C@H](CCSC)NC1=O)C(=O)N[C@@H]([C@@H](C)CC)C(=O)N1CCC[C@H]1C(=O)N[C@@H](CC(=O)O)C(=O)N[C@@H](CC(N)=O)C(=O)N[C@@H](CC(=O)O)C(=O)N[C@@H](CCCCN)C(=O)N3)NC(=O)[C@H](C(C)C)NC(=O)[C@H](CC(C)C)NC(=O)[C@H](CC(N)=O)NC(=O)[C@@H]1CCCN1C(=O)[C@H](CCCNC(=N)N)NC2=O [compound 705] (H-DCLG[Nva]MRKCIPDNDKCCRPNLVCSRTHEWCKYVF-NH2; disulfide 2-17, 9-23, 16-30)
IC50 [1, 6]: 0.43 µM
IC50 [2, 7]: 33 µM
IC50 [3, 8]: 3.4 µM
